Laboratory results from PubChem BioAssay AID256 (DTP/NCI, 2004).
“And” between values parts separate entries of the source, which are not always exact repeats. Equal entries are not always repeated. Inconclusive results and toxic doses are left out.

Test system: CD2F1 mice, L1210 leukemia ip, survival T/C
Assay: NCI In Vivo Anticancer Drug Screen. Data for tumor model L1210 Leukemia (intraperitoneal) in CD2F1 (CDF1) mice
Details: endpoint: mean survival time, higher = longer survival
How it was run: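 Read-out first: treated-group measurement over vehicle-control measurement, expressed as a ratio. Animals bore a transplanted tumor line and were dosed with compound or vehicle.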

Nc1nncs1
T/C (dose: 1.0 mg/kg/injection, schedule: Q01DX005 (ip), vehicle: water): 94 % of control
T/C (dose: 2.0 mg/kg/injection, schedule: Q01DX005 (ip), vehicle: water): 96 % of control
T/C (dose: 4.0 mg/kg/injection, schedule: Q01DX005 (ip), vehicle: water): 96 % of control
T/C (dose: 8.0 mg/kg/injection, schedule: Q01DX005 (ip), vehicle: water): 98 % of control
T/C (dose: 8.0 mg/kg/injection, schedule: Q03HX008 (ip), vehicle: alkali diluted with saline): 123 % of control
T/C (dose: 8.0 mg/kg/injection, schedule: Q03HX016 (ip), vehicle: alkali diluted with saline): 116 % of control
T/C (dose: 8.0 mg/kg/injection, schedule: Q03HX024 (ip), vehicle: alkali diluted with saline): 152 % of control
T/C (dose: 8.0 mg/kg/injection, schedule: Q03HX024 (ip), vehicle: saline): 153 % of control
T/C (dose: 16.0 mg/kg/injection, schedule: Q01DX005 (ip), vehicle: water): 108 % of control
T/C (dose: 16.0 mg/kg/injection, schedule: Q01DX005 (iv), vehicle: alkali diluted with saline): 110 % of control
T/C (dose: 16.0 mg/kg/injection, schedule: Q01DX009 (oral), vehicle: other): 108 % of control
T/C (dose: 16.0 mg/kg/injection, schedule: Q03HX024 (ip), vehicle: alkali diluted with saline): 194 % of control
T/C (dose: 23.4 mg/kg/injection, schedule: Q04DX003 (ip), vehicle: water): 103 % of control
T/C (dose: 32.0 mg/kg/injection, schedule: Q01DX001 (iv), vehicle: alkali diluted with saline): 107 % of control
T/C (dose: 32.0 mg/kg/injection, schedule: Q01DX009 (ip), vehicle: other): 123 % of control
T/C (dose: 32.0 mg/kg/injection, schedule: Q01DX009 (ip), vehicle: saline with Tween-80): 120 % of control
T/C (dose: 32.0 mg/kg/injection, schedule: Q01DX009 (oral), vehicle: other): 107 % of control
T/C (dose: 32.0 mg/kg/injection, schedule: Q03HX008 (ip), vehicle: saline): 120 % of control
T/C (dose: 32.0 mg/kg/injection, schedule: Q03HX024 (ip), vehicle: saline): 104 % of control
T/C (dose: 32.0 mg/kg/injection, schedule: Q04DX003 (ip), vehicle: alkali diluted with saline): 111 % of control
T/C (dose: 32.0 mg/kg/injection, schedule: Q04DX003 (ip), vehicle: other): 106 % of control
T/C (dose: 39.0 mg/kg/injection, schedule: Q04DX003 (ip), vehicle: water): 117 % of control and 105 % of control
T/C (dose: 50.0 mg/kg/injection, schedule: Q04DX003 (ip), vehicle: water): 106 % of control
T/C (dose: 62.5 mg/kg/injection, schedule: Q04DX003 (ip), vehicle: water): 103 % of control and 107 % of control
T/C (dose: 64.0 mg/kg/injection, schedule: Q01DX001 (ip), vehicle: alkali diluted with saline): 112 % of control
T/C (dose: 64.0 mg/kg/injection, schedule: Q01DX001 (ip), vehicle: other): 109 % of control
T/C (dose: 64.0 mg/kg/injection, schedule: Q01DX001 (iv), vehicle: alkali diluted with saline): 112 % of control
T/C (dose: 64.0 mg/kg/injection, schedule: Q01DX001 (oral), vehicle: alkali diluted with saline): 111 % of control
T/C (dose: 64.0 mg/kg/injection, schedule: Q01DX001 (oral), vehicle: other): 94 % of control
T/C (dose: 64.0 mg/kg/injection, schedule: Q01DX001 (sc), vehicle: alkali diluted with saline): 115 % of control
T/C (dose: 64.0 mg/kg/injection, schedule: Q01DX009 (ip), vehicle: other): 103 % of control
T/C (dose: 64.0 mg/kg/injection, schedule: Q01DX009 (ip), vehicle: saline with Tween-80): 104 % of control and 107 % of control
T/C (dose: 64.0 mg/kg/injection, schedule: Q01DX009 (ip), vehicle: saline): 109 % of control
T/C (dose: 64.0 mg/kg/injection, schedule: Q01DX009 (oral), vehicle: other): 86 % of control
T/C (dose: 64.0 mg/kg/injection, schedule: Q03HX024 (ip), vehicle: alkali diluted with saline): 97 % of control
T/C (dose: 64.0 mg/kg/injection, schedule: Q04DX003 (ip), vehicle: other): 123 % of control
T/C (dose: 64.0 mg/kg/injection, schedule: Q08DX002 (ip), vehicle: alkali diluted with saline): 114 % of control
T/C (dose: 64.0 mg/kg/injection, schedule: Q08DX002 (ip), vehicle: other): 105 % of control
T/C (dose: 65.0 mg/kg/injection, schedule: Q04DX003 (ip), vehicle: water): 123 % of control
T/C (dose: 100.0 mg/kg/injection, schedule: Q04DX003 (ip), vehicle: water): 119 % of control
T/C (dose: 125.0 mg/kg/injection, schedule: Q04DX003 (ip), vehicle: water): 119 % of control
T/C (dose: 128.0 mg/kg/injection, schedule: Q01DX001 (ip), vehicle: other): 119 % of control
T/C (dose: 128.0 mg/kg/injection, schedule: Q01DX001 (iv), vehicle: alkali diluted with saline): 119 % of control
T/C (dose: 128.0 mg/kg/injection, schedule: Q01DX001 (oral), vehicle: other): 104 % of control
T/C (dose: 128.0 mg/kg/injection, schedule: Q01DX001 (sc), vehicle: alkali diluted with saline): 120 % of control
T/C (dose: 128.0 mg/kg/injection, schedule: Q01DX009 (sc), vehicle: alkali diluted with saline): 96 % of control
T/C (dose: 128.0 mg/kg/injection, schedule: Q08DX002 (ip), vehicle: alkali diluted with saline): 124 % of control
T/C (dose: 128.0 mg/kg/injection, schedule: Q08DX002 (ip), vehicle: other): 116 % of control
T/C (dose: 180.0 mg/kg/injection, schedule: Q04DX003 (ip), vehicle: water): 159 % of control
T/C (dose: 200.0 mg/kg/injection, schedule: Q04DX003 (ip), vehicle: water): 124 % of control
T/C (dose: 250.0 mg/kg/injection, schedule: Q04DX003 (ip), vehicle: water): 156 % of control
T/C (dose: 256.0 mg/kg/injection, schedule: Q01DX001 (ip), vehicle: other): 118 % of control
T/C (dose: 256.0 mg/kg/injection, schedule: Q01DX001 (oral), vehicle: other): 108 % of control
T/C (dose: 256.0 mg/kg/injection, schedule: Q01DX005 (iv), vehicle: alkali diluted with saline): 150 % of control
T/C (dose: 256.0 mg/kg/injection, schedule: Q01DX009 (ip), vehicle: alkali diluted with saline): 87 % of control
T/C (dose: 256.0 mg/kg/injection, schedule: Q04DX003 (ip), vehicle: alkali diluted with saline): 163 % of control
T/C (dose: 256.0 mg/kg/injection, schedule: Q04DX003 (ip), vehicle: other): 157 % of control
T/C (dose: 300.0 mg/kg/injection, schedule: Q04DX003 (ip), vehicle: water): 161 % of control and 176 % of control
T/C (dose: 512.0 mg/kg/injection, schedule: Q01DX001 (oral), vehicle: other): 111 % of control
T/C (dose: 512.0 mg/kg/injection, schedule: Q04DX003 (ip), vehicle: alkali diluted with saline): 182 % of control
T/C (dose: 512.0 mg/kg/injection, schedule: Q04DX003 (ip), vehicle: other): 168 % of control
T/C (dose: 512.0 mg/kg/injection, schedule: Q08DX002 (ip), vehicle: alkali diluted with saline): 151 % of control
T/C (dose: 833.0 mg/kg/injection, schedule: Q04DX003 (ip), vehicle: water): 182 % of control
T/C (dose: 1024.0 mg/kg/injection, schedule: Q01DX001 (ip), vehicle: other): 122 % of control
T/C (dose: 1024.0 mg/kg/injection, schedule: Q01DX001 (oral), vehicle: alkali diluted with saline): 117 % of control
T/C (dose: 1024.0 mg/kg/injection, schedule: Q01DX001 (oral), vehicle: other): 109 % of control
T/C (dose: 1024.0 mg/kg/injection, schedule: Q08DX002 (ip), vehicle: alkali diluted with saline): 160 % of control

CCCCC1(C(=O)OCC)SCCCS1
T/C (dose: 50.0 mg/kg/injection, schedule: Q04DX002 (ip), vehicle: saline with Tween-80): 94 % of control
T/C (dose: 100.0 mg/kg/injection, schedule: Q04DX002 (ip), vehicle: saline with Tween-80): 105 % of control
T/C (dose: 200.0 mg/kg/injection, schedule: Q04DX002 (ip), vehicle: saline with Tween-80): 97 % of control

O=C(N/N=C\C(O)C(O)C(O)C(O)CO)c1ccccc1 (configuration not stated)
T/C (dose: 75.0 mg/kg/injection, schedule: Q01DX001 (ip), vehicle: saline): 100 % of control
T/C (dose: 150.0 mg/kg/injection, schedule: Q01DX001 (ip), vehicle: saline): 104 % of control
T/C (dose: 300.0 mg/kg/injection, schedule: Q01DX001 (ip), vehicle: saline): 106 % of control

O=c1ccc2ccc(O)cc2o1
T/C (dose: 50.0 mg/kg/injection, schedule: Q01DX009 (ip), vehicle: saline with Tween-80): 101 % of control
T/C (dose: 100.0 mg/kg/injection, schedule: Q01DX001 (ip), vehicle: saline): 103 % of control
T/C (dose: 100.0 mg/kg/injection, schedule: Q01DX009 (ip), vehicle: saline with Tween-80): 93 % of control
T/C (dose: 200.0 mg/kg/injection, schedule: Q01DX001 (ip), vehicle: saline): 108 % of control
T/C (dose: 200.0 mg/kg/injection, schedule: Q01DX009 (ip), vehicle: saline with Tween-80): 97 % of control
T/C (dose: 400.0 mg/kg/injection, schedule: Q01DX001 (ip), vehicle: saline): 103 % of control

c1ccc2nc3c(nc2c1)[nH]c1ccccc13
T/C (dose: 100.0 mg/kg/injection, schedule: Q01DX001 (ip), vehicle: saline with Tween-80): 100 % of control
T/C (dose: 200.0 mg/kg/injection, schedule: Q01DX001 (ip), vehicle: saline with Tween-80): 92 % of control
T/C (dose: 400.0 mg/kg/injection, schedule: Q01DX001 (ip), vehicle: saline with Tween-80): 89 % of control
